# System: Human pancreatic cancer cells PC1.0
# Test: cells
# Details: light or radiation study
# Protocol: Human pancreatic cancer cells PC1.0 were plated in 96 well culture plate at 1000 cells/well and cultured overnight. Then, methylene blue (MB) or SMA-methylene blue (SMA-MB) micelle was added to the cultured cells above, and allowed to culture another 48 hours. Light irradiation was carried out using tungsten xenon lamp at 15 cm distance from the cell surface for 20 min. Then, the survival rate of the cells was quantified by MTT Method.
structure (smiles),measurement,setting,value
"CN(C)c1ccc2nc3ccc(=[N+](C)C)cc-3sc2c1 [Methylene blue, methylene blue]",IC50,,500 nM
same,IC50,48 h,4500 nM

# — patent US10946109B2, “Polymer-type fluorescent molecule probe” (HIROSHI MAEDA, priority 2011, dated 2021)
